Laboratory results taken from patent publication EP0567562B1, “METHODS FOR DETECTING GLUCAGON ANTAGONISTS” (ZYMOGENETICS, INC., priority 1991, dated 1996).

Tested on: glucagon receptor
Assay: Glucagon antagonist screening assay: adenylate cyclase reaction with rat liver membranes, cAMP measured by Scintillation Proximity Assay
Type: biochemical
Text: Young female Sprague-Dawley rats were used for the preparation of liver membranes using the method essentially described by Neville (ibid.) and modified by Pohl et al. (ibid). Ten to 15 rats yielding 60-100 grams of liver were processed per batch. After the rats were euthanized by cervical dislocation, their livers were surgically removed and transferred, as quickly as possible, to an iced beaker. Scissors were used to mince the tissue into pieces approximately 3-6 mm in size. Any connective tissue that was present was removed.
The minced tissue was suspended in ice cold 1 mM sodium bicarbonate at a concentration of approximately 300 g/I. This suspension was processed in batches in a tissue homogenizer with eight strokes of the loose pestle. […]
After centrifugation, as much of the supernatant as possible was carefully decanted and discarded, and the pellets were gently resuspended in the remaining supernatant with three strokes of the loose pestle in a clean tissue homogenizer. […] After thorough mixing, the sucrose concentration was measured with a refractometer and adjusted to between 43.9% and 44 1% sucrose (corresponding to a refractive index between 1.4076 and 1.4080) with either 69% sucrose or water. […]

Row | Compound | antagonist activity: CAMP response of rat liver membranes to three concentrations of glucagon (culture broth of the yeast strain, compared with control strains making des-His^1-glucagon and des-His^1-[Glu^9]glucagon) | stimulation of adenylate cyclase activity by culture broth in the absence of exogenous glucagon (yeast culture broth, no exogenous glucagon)
1 | CSCC[C@H](NC(=O)[C@H](CC(C)C)NC(=O)[C@H](Cc1c[nH]c2ccccc12)NC(=O)[C@H](CCC(N)=O)NC(=O)[C@@H](NC(=O)[C@H](Cc1ccccc1)NC(=O)[C@H](CC(=O)O)NC(=O)[C@H](CCC(N)=O)NC(=O)[C@H](C)NC(=O)[C@H](CCCNC(=N)N)NC(=O)[C@H](CCCNC(=N)N)NC(=O)[C@H](CO)NC(=O)[C@H](CC(=O)O)NC(=O)[C@H](CC(C)C)NC(=O)[C@H](Cc1ccc(O)cc1)NC(=O)[C@H](CCCCN)NC(=O)[C@H](CO)NC(=O)[C@H](Cc1ccc(O)cc1)NC(=O)[C@H](CC(=O)O)NC(=O)[C@H](CO)NC(=O)[C@@H](NC(=O)[C@H](Cc1ccccc1)NC(=O)[C@@H](NC(=O)CNC(=O)[C@H](CCC(N)=O)NC(=O)[C@@H](N)CO)[C@@H](C)O)[C@@H](C)O)C(C)C)C(=O)N[C@@H](CC(N)=O)C(=O)N[C@H](C(=O)O)[C@@H](C)O [des-His^1-glucagon] | weak antagonist | 
2 | glucagon [ZB210] |  | stimulation of adenylate cyclase activity even in the absence of exogenous glucagon
